# Source: PMC3552554 (Thrombosis and haemostasis, 2010)
# Non-standard residues stand in square brackets, D forms with d. Residues, ends and D or L forms follow the SMILES beside them. Oic = O=C(O)[C@@H]1C[C@@H]2CCCC[C@@H]2N1; Phe(4-Me) = Cc1ccc(C[C@H](N)C(=O)O)cc1
# Legend:
# [1] = 3 mg/ml in drinking water; cited from earlier work
# [2] = administered intravenously; cited from earlier work
# [3] = Tail bleeding time; format: in vivo, mouse; conditions: 3 mg/ml in drinking water, 5 days; n = 6; untreated 79±11 sec (n = 5), p = 0.38
# [4] = cited from earlier work
# [5] = tested on: human platelets; conditions: cited from earlier work
# [6] = tested on: PC3-luc cells; format: cell-based, human
# [7] = biological target: T1, thrombin (Homo sapiens, UniProt P00734); conditions: cited from earlier work
# [8] = tested on: carotid artery thrombosis; conditions: cited from earlier work
# [9] = biological target: thrombin; conditions: direct thrombin inhibitor; cited from earlier work
# [10] = biological target: T1, thrombin; assay: Plasma thrombin clotting time after oral treatment; format: in vivo, mouse; conditions: 3 mg/ml in drinking water
# [11] = tested on: PC3-luc cells; assay: Matrigel invasion assay, α-thrombin-stimulated; format: cell-based, human; conditions: 1 nM α-thrombin overnight, p = 0.02, 3 independent experiments
# [12] = tested on: PC3-luc tumors; assay: PC3-luc tumor growth in nude mice; format: in vivo; conditions: oral 3 mg/ml in drinking water
# [13] = tested on: PC3 tumor vessels; assay: PECAM; format: in vivo, nude mice; conditions: treated tumors, 3 mg/ml in drinking water; untreated 4.6 ± 2.1/hpf, p = 0.04
compound,measurement,setting,value
"Cc1ccc(C[C@H](NC(=O)[C@@H](C)NC(=O)[C@@H]2CCCN2C(=O)[C@@H]2C[C@@H]3CCCC[C@@H]3N2C(=O)[C@H](N)CCCN=C(N)N)C(N)=O)cc1 [FM19, D-Arg-Oic-Pro, D-Ala-Phe(pMe)] (H-[dR][Oic]P[dA][Phe(4-Me)]-NH2)",effect on mouse bleeding time,[1],does not prolong the mouse bleeding time
same,clearance,[2],8.2 ± 5.1 mL/min/kg
same,t1/2α,[2],32.5 ± 2.9 min
same,mean tail bleeding time,[3],92 ± 8 s
same,plasma concentration,[4]; 5 mg/ml steady-state oral,173 ± 16 ng/mL
same,steady-state plasma concentration,"[4]; oral 3 mg/ml in the drinking water, after 5 days",80 ng/mL
"Cc1ccc(C[C@H](NC(=O)[C@@H](C)NC(=O)[C@@H]2CCCN2C(=O)[C@@H]2C[C@@H]3CCCC[C@@H]3N2C(=O)[C@H](N)CCCNC(=N)N)C(N)=O)cc1 [FM19, D-Arg-Oic-Pro, D-Ala-Phe(pMe)] (H-[dR][Oic]P[dA][Phe(4-Me)]-NH2; N-terminus and C-terminus assumed)",inhibits the threshold of α-thrombin-induced human platelet aggregation,[5],8.4 ± 4.7 µM
same,IC50,[6],15 µM
same,concentration that inhibited α-thrombin-induced calcium mobilization,"[6]; PC3-luc cells, 1 nM α-thrombin",1 to 100 µM
same,prolongation of the plasma thrombin clotting time,"[7]; 3 mg/ml in drinking water, after 5 days",1.4 times
same,prolongation of the thrombin clotting time,[7]; 5 mg/ml steady-state oral,7.3 fold
same,effect on time to carotid artery occlusion,"[8]; 3 mg/ml in drinking water, rose Bengal assay",does not prolong the mouse bleeding time or delay time to carotid artery occlusion
same,effect on induced arterial thrombosis,[8]; 5 mg/ml in drinking water,delays induced arterial thrombosis
same,prolongation of the arterial thrombosis time,[8]; 5 mg/ml steady-state oral,2.7 fold
same,Ki,[9],4.4 ± 2.4 µM
same,thrombin clotting time,"[10]; 5 days, n = 6, untreated 16±1 sec, p < 0.003",22 ± 1 s
same,increase in the thrombin clotting time,[10]; treated vs untreated,1.4 fold
same,lowest concentration that significantly decreased the number of invading cells,[11],0.1 µM
same,mean tumor weight,"[12]; 5 weeks, 10 tumors, untreated 0.82 ± 0.32 g, p = 0.04",0.5 ± 0.31 g
same,mean tumor growth rate,"[12]; day 14 to day 28, bioluminescence normalized to day 7, untreated 0.55 ± 0.35, p = 0.038",0.26 ± 0.17 fold change/day
same,number of large vessels (> 10 microns),[13],1.4 ± 1.4 /hpf
